Reference: ChEMBL document CHEMBL1201862, “PubChem BioAssay data set” (2004)
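All cell lines were grown in 96-well plates and treated with compound for 48 hours. GI50 marks 50% less growth.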 Active and inactive are the calls of the source. Rule as the data show it: active = GI50 up to about 1.1 µM and inactive = higher.

Key:
Experiment in all cases: NCI-60 cell line screen, 48 h
CAKI-1 = tested on: CAKI-1
NCI-H460 = tested on: NCI-H460
ACHN = tested on: ACHN
SNB-19 = tested on: SNB-19
UACC-62 = tested on: UACC-62
RXF 393 = tested on: RXF 393
UO-31 = tested on: UO-31
SK-MEL-28 = tested on: SK-MEL-28
HCT-15 = tested on: HCT-15
RPMI-8226 = tested on: RPMI-8226
SF-539 = tested on: SF-539
SK-OV-3 = tested on: SK-OV-3
EKVX = tested on: EKVX
SNB-75 = tested on: SNB-75
SK-MEL-2 = tested on: SK-MEL-2
HOP-92 = tested on: HOP-92
HCC 2998 = tested on: HCC 2998
SF-295 = tested on: SF-295

SMILES | GI50 (CAKI-1) | GI50 (NCI-H460) | GI50 (ACHN) | GI50 (SNB-19) | GI50 (UACC-62) | GI50 (RXF 393) | GI50 (UO-31) | GI50 (SK-MEL-28) | GI50 (HCT-15) [µM] | GI50 (RPMI-8226) | GI50 (SF-539) | GI50 (SK-OV-3) | GI50 (EKVX) | GI50 (SNB-75) | GI50 (SK-MEL-2) | GI50 (HOP-92) | GI50 (HCC 2998) | GI50 (SF-295)
O=C(N/C(=C\c1ccc(Br)cc1)c1nc2ccccc2s1)c1ccccc1 | > 100 µM (inactive) | 85.1 µM (inactive) | 76.9 µM (inactive) | 47 µM (inactive) | 71 µM (inactive) | 43.4 µM (inactive) | 40.3 µM (inactive) | > 100 µM (inactive) | 46.1 | 32.5 µM (inactive) | 88.9 µM (inactive) | > 100 µM (inactive) | 37.5 µM (inactive) | > 100 µM (inactive) | > 100 µM (inactive) | 38.2 µM (inactive) |  | 
C=C1C(=O)OC2(C)C3CCC(C3)C12 (configuration not stated) | 30.1 µM (inactive) | 33 µM (inactive) | > 100 µM (inactive) | > 100 µM (inactive) | 63.8 µM (inactive) |  | > 100 µM (inactive) | > 100 µM (inactive) | 60.7 | 34.4 µM (inactive) | 98.2 µM (inactive) | > 100 µM (inactive) | 81.8 µM (inactive) | 47.1 µM (inactive) | 39.4 µM (inactive) | 29 µM (inactive) | 66.1 µM (inactive) | > 100 µM (inactive)
COC(=O)[C@H]1CC(=O)C=C2CCCC21 (some centres not stated) | > 100 µM (inactive) | > 100 µM (inactive) |  | > 100 µM (inactive) | > 100 µM (inactive) | > 100 µM (inactive) | > 100 µM (inactive) | > 100 µM (inactive) | > 100 | > 100 µM (inactive) | > 100 µM (inactive) | > 100 µM (inactive) | > 100 µM (inactive) | > 100 µM (inactive) | > 100 µM (inactive) | > 100 µM (inactive) | > 100 µM (inactive) | > 100 µM (inactive)
O=C(CSC(=S)N1CCOCC1)Nc1nc2c(s1)CCCC2 |  | > 100 µM (inactive) | > 100 µM (inactive) |  |  |  | 41.4 µM (inactive) | > 100 µM (inactive) | > 100 | > 100 µM (inactive) | > 100 µM (inactive) | > 100 µM (inactive) | 99.5 µM (inactive) | > 100 µM (inactive) | > 100 µM (inactive) | 23.9 µM (inactive) | 24.1 µM (inactive) | > 100 µM (inactive)
COc1cc(O)c(C(=O)CC(C)=O)c(OC)c1 | > 100 µM (inactive) | > 100 µM (inactive) | > 100 µM (inactive) | > 100 µM (inactive) | > 100 µM (inactive) | > 100 µM (inactive) | > 100 µM (inactive) | > 100 µM (inactive) |  | > 100 µM (inactive) | > 100 µM (inactive) | > 100 µM (inactive) | > 100 µM (inactive) | 76.4 µM (inactive) | > 100 µM (inactive) |  | > 100 µM (inactive) | > 100 µM (inactive)
COc1ccccc1-c1cc(=O)c2ccccc2[nH]1 |  | > 100 µM (inactive) | > 100 µM (inactive) | > 100 µM (inactive) | 41.7 µM (inactive) | > 100 µM (inactive) | 60.7 µM (inactive) | > 100 µM (inactive) | 55.1 | 70 µM (inactive) | > 100 µM (inactive) | 73.6 µM (inactive) | > 100 µM (inactive) | 55.7 µM (inactive) |  |  | 72.6 µM (inactive) | 40 µM (inactive)
O=[N+]([O-])c1cccc(Nc2nc(Cl)nc(Cl)n2)c1 | > 100 µM (inactive) | > 100 µM (inactive) | > 100 µM (inactive) | > 100 µM (inactive) | > 100 µM (inactive) |  | > 100 µM (inactive) | > 100 µM (inactive) | > 100 | > 100 µM (inactive) | > 100 µM (inactive) | > 100 µM (inactive) | > 100 µM (inactive) | > 100 µM (inactive) | > 100 µM (inactive) |  | > 100 µM (inactive) | > 100 µM (inactive)
O=c1ccc2ccc(O)c3c4c(O)ccc5ccc(=O)c(c1c23)c54 |  | 3.56 µM (inactive) | 2.69 µM (inactive) | 2.18 µM (inactive) | 0.382 µM (active) | 1.17 µM (inactive) | 1.65 µM (inactive) | 1.14 µM (inactive) | 1.26 | 2.9 µM (inactive) | 1.69 µM (inactive) | 4.02 µM (inactive) | 3.38 µM (inactive) |  | 1.45 µM (inactive) |  |  | 2.69 µM (inactive)
O=S(=O)(O)SC/C=C\CSS(=O)(=O)O | > 100 µM (inactive) | 42.2 µM (inactive) | > 100 µM (inactive) | > 100 µM (inactive) | > 100 µM (inactive) | > 100 µM (inactive) | > 100 µM (inactive) | > 100 µM (inactive) | 65.8 | > 100 µM (inactive) | > 100 µM (inactive) | > 100 µM (inactive) | > 100 µM (inactive) | > 100 µM (inactive) |  | > 100 µM (inactive) | > 100 µM (inactive) | > 100 µM (inactive)
